Test system: T1, ANT(6)-If
T1 construct: full-length ORF (855 bp, TTG start codon); 284 residues; His6 tag removed with thrombin; likely homodimer by clear-native PAGE
Assay: coupled UDP-glucose pyrophosphorylase / phosphoglucomutase / G6PDH assay, NADPH at […] nm
Type: biochemical, Paenibacillus thiaminolyticus
Conditions: 1 mM ATP, 10 mM MgCl2, 50 mM HEPES pH 7.5; temperature not given

For `CN[C@@H]1[C@H](O[C@H]2[C@H](O[C@H]3[C@H](O)[C@@H](O)[C@H](N=C(N)N)[C@@H](O)[C@@H]3N=C(N)N)O[C@@H](C)[C@]2(O)C=O)O[C@@H](CO)[C@H](O)[C@H]1O` [streptomycin], the Km was 12.4 µM.
